# Test system: A/Brisbane/59/2007 H1N1 Oseltamivir-Resistant NA
# Type: biochemical, influenza A/Brisbane/59/2007 H1N1 Oseltamivir-Resistant
# Conditions: pH 7.6
compound,measurement,value
"CC(=O)NC1C(NC(=N)N)C(F)C(Oc2c(F)cc3c(C)cc(=O)oc3c2F)(C(=O)O)OC1[C@H](O)[C@H](O)CO (stereo partly drawn) [compound 3, 5-Acetamido-4-guanidine-3-fluoro-3,4,5-trideoxy-2α-(4-methyl-6,8-difluoromethylumbelliferyl)-D-glycero-D-galactononulopyranosylnoic acid]",Km,41.6 µM
same,kcat,35.7 s⁻¹

# Source: patent US11639348B2, “Compositions and methods for neuraminidase detection and quantification” (priority 2018, dated 2023)
